Data taken from US10851099B2, “Dipeptide piperidine derivatives” (OncoArendi Therapeutics S.A., priority 2018, dated 2020).
Where a name gives a salt, the structure may show the parent alone.

What follows are molecules tested against T1, recombinant human arginase 2 (Homo sapiens, UniProt P78540) (assay: Human arginase inhibition assay (colorimetric urea detection), arginase 2). Details: IC50 class, hydrochloride salts, 1 h at 37° C., pH 7.4, 10 mM L-arginine, 200 μM MnCl2, read-out: Activity Class (ARG II).
T1 construct: made in house; host or cells: E. coli
T1 sequence (P78540 23-354): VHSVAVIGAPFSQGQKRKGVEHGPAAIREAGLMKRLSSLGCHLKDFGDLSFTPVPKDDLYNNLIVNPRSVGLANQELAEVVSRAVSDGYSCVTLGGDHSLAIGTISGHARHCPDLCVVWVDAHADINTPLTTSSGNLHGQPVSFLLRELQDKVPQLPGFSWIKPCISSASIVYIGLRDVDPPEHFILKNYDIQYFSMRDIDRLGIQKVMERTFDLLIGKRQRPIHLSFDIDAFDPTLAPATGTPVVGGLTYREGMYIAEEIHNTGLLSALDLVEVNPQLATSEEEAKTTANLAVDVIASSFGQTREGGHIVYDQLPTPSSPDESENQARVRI
Format: biochemical
Method: (§1) The inhibitory activities of the compounds of the invention were assessed using recombinant human arginase 1 and 2. Both enzymes were biosynthesized using a prokaryotic expression system (E. coli) and purified by fast protein liquid chromatography (FPLC). The compounds were screened in 96-well plates at the total reaction volume of 100 μL. Briefly, recombinant enzymes were incubated with the tested compounds for 1 h at 37° C. in the reaction buffer (100 mM sodium phosphate buffer, 130 mM NaCl, 1 mg/mL BSA, pH 7.4) containing substrate (10 mM L-arginine hydrochloride) and cofactor (200 μM MnCl2). The assay is based on the detection of urea, which is generated during the conversion of L-arginine into L-ornithine catalyzed by ARG1 or ARG2. The colorimetrically detectable product was developed by adding a mixture of reagent A (4 mM oPA, 50 mM boric acid, 1 M sulfuric acid, 0.03% Brij-35) and reagent B (4 mM NED, 50 mM boric acid, 1 M sulfuric acid, 0.03% Brij-35) in equal proportions. The absorbance for each well was measured at 515 nm and the enzyme inhibition was calculated. The urea production in the absence of any tested compound was considered as maximal enzyme activity. The absorbance at the absence of arginase (background) was subtracted from all the values. Normalized values were analyzed using GraphPad Prism 7.0 software by plotting inhibition curves and determining the IC50 values.
(§2) The inhibitory activity toward humane arginase 1 of the hydrochloride salts of the exemplary compounds according to the invention is presented in Table 5.
The inhibitory activity toward humane arginase 2 of the hydrochloride salts of the selected exemplary compounds according to the invention is presented in Table 6.

| IC50 [nM] | Compound |
| --- | --- |
| 500 to 999 | C[C@H](N)C(=O)N1C[C@@H](CCB(O)O)C[C@](N)(C(=O)O)[C@@H]1C [Example 30, (2S,3R,5S)-1-(L-alanyl)-3-amino-5-(2-boronoethyl)-2-methylpiperidine-3-carboxylic acid dihydrochloride] |
| 500 to 999 | NCCCC[C@H](N)C(=O)N1C[C@@H](CCB(O)O)C[C@](N)(C(=O)O)C1 [Example 7, (3R,5S)-1-(L-Lysyl)-3-amino-5-(2-boronoethyl)piperidine-3-carboxylic acid trihydrochloride] |
| 500 to 999 | N[C@@H](CO)C(=O)N1C[C@@H](CCB(O)O)C[C@](N)(C(=O)O)C1 [Example 6, (3R,5S)-1-(L-Seryl)-3-amino-5-(2-boronoethyl)piperidine-3-carboxylic acid dihydrochloride] |

These molecules were tested against T2, recombinant human arginase 1 (Homo sapiens, UniProt P05089) (assay: Human arginase inhibition assay (colorimetric urea detection), arginase 1). Details: IC50 class, hydrochloride salts, 1 h at 37° C., pH 7.4, 10 mM L-arginine, 200 μM MnCl2, read-out: Activity Class (ARG I).
T2 construct: made in house; host or cells: E. coli
T2 sequence (P05089 1-322): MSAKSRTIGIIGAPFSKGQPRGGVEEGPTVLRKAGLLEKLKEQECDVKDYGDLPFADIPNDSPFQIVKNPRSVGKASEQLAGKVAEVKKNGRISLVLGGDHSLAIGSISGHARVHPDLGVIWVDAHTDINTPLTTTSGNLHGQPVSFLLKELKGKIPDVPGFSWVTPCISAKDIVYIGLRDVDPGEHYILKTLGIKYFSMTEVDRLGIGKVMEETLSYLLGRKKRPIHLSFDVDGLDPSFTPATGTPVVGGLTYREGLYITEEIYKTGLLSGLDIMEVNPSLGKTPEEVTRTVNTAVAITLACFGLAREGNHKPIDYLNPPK
Format: biochemical
Method: as §1, §2

| Compound | IC50 [nM] |
| --- | --- |
| N[C@@H](CC(=O)O)C(=O)N1C[C@@H](CCB(O)O)C[C@](N)(C(=O)O)C1 [Example 14, (3R,5S)-1-(L-Aspartyl)-3-amino-5-(2-boronoethyl)piperidine-3-carboxylic acid dihydrochloride] | 500 to 999 |
| N[C@@H](CS)C(=O)N1C[C@@H](CCB(O)O)C[C@](N)(C(=O)O)C1 [Example 19, (3R,5S)-1-(L-Cysteinyl)-3-amino-5-(2-boronoethyl)piperidine-3-carboxylic acid dihydrochloride] | 500 to 999 |
| C[C@H](N)C(=O)N1C[C@@H](CCB(O)O)C[C@@](N)(C(=O)O)C1 [Example 33, (3S,5S)-1-(L-Alanyl)-3-amino-5-(2-boronoethyl)piperidine-3-carboxylic acid dihydrochloride] | > 10000 |
| C[C@@H]1N(C(=O)[C@@H](N)CCCNC(=N)N)C[C@@H](CCB(O)O)C[C@]1(N)C(=O)O [Example 31, (2S,3R,5S)-1-(L-Arginyl)-3-amino-5-(2-boronoethyl)-2-methylpiperidine-3-carboxylic acid trihydrochloride] | 250 to 499 |
| CCC[C@H](N)C(=O)N1C[C@@H](CCB(O)O)C[C@](N)(C(=O)O)C1 [Example 25, (3R,5S)-3-Amino-1-((S)-2-aminopentanoyl)-5-(2-boronoethyl)piperidine-3-carboxylic acid dihydrochloride] | 250 to 499 |
| N[C@@H](CCC(=O)O)C(=O)N1C[C@@H](CCB(O)O)C[C@](N)(C(=O)O)C1 [Example 15, (3R,5S)-1-(L-Glutamyl)-3-amino-5-(2-boronoethyl)piperidine-3-carboxylic acid dihydrochloride] | 500 to 999 |
| CNCC(=O)N1C[C@@H](CCB(O)O)C[C@](N)(C(=O)O)C1 [Example 27, (3R,5S)-3-Amino-5-(2-boronoethyl)-1-(methylglycyl)piperidine-3-carboxylic acid dihydrochloride] | 250 to 499 |
| CC(C)[C@H](N)C(=O)N1C[C@@H](CCB(O)O)C[C@](N)(C(=O)O)C1 [Example 5, (3R,5S)-1-(L-Valyl)-3-amino-5-(2-boronoethyl)piperidine-3-carboxylic acid dihydrochloride] | 250 to 499 |
| N[C@]1(C(=O)O)C[C@H](CCB(O)O)CN(C(=O)[C@@H]2CCCN2)C1 [Example 4, (3R,5S)-1-(L-Prolyl)-3-amino-5-(2-boronoethyl)piperidine-3-carboxylic acid dihydrochloride] | 250 to 499 |
| N[C@@H](Cc1ccc(O)cc1)C(=O)N1C[C@@H](CCB(O)O)C[C@](N)(C(=O)O)C1 [Example 10, (3R,5S)-1-(L-Tyrosyl)-3-amino-5-(2-boronoethyl)piperidine-3-carboxylic acid dihydrochloride] | 250 to 499 |
| CC[C@H](C)[C@H](N)C(=O)N1C[C@@H](CCB(O)O)C[C@](N)(C(=O)O)C1 [Example 9, (3R,5S)-1-(L-Isoleucyl)-3-amino-5-(2-boronoethyl)piperidine-3-carboxylic acid dihydrochloride] | 500 to 999 |
| COC(=O)[C@@]1(N)C[C@H](CCB(O)O)CN(C(=O)[C@H](C)N)C1 [Example 28, (2-((3S,5R)-1-(L-Alanyl)-5-amino-5-(methoxycarbonyl)piperidin-3-yl)ethyl) boronic acid dihydrochloride] | > 10000 |
| NC(=O)CC[C@H](N)C(=O)N1C[C@@H](CCB(O)O)C[C@](N)(C(=O)O)C1 [Example 16, (3R,5S)-1-(L-Glutaminyl)-3-amino-5-(2-boronoethyl)piperidine-3-carboxylic acid dihydrochloride] | 250 to 499 |
| C[C@H](N)C(=O)N1C[C@H](CCB(O)O)C[C@@](N)(C(=O)O)C1 [Example 2, (3S,5R)-1-(L-Alanyl)-3-amino-5-(2-boronoethyl)piperidine-3-carboxylic acid dihydrochloride] | > 10000 |
| C[C@@H](N)C(=O)N1C[C@@H](CCB(O)O)C[C@](N)(C(=O)O)C1 [Example 23, (3R,5S)-1-(D-Alanyl)-3-amino-5-(2-boronoethyl)piperidine-3-carboxylic acid dihydrochloride] | 1000 to 10000 |
| Cn1cc(C[C@@H](N)C(=O)N2C[C@@H](CCB(O)O)C[C@](N)(C(=O)O)C2)c2ccccc21 [Example 24, (3R,5S)-3-amino-5-(2-boronoethyl)-1-(1-methyl-D-tryptophyl)piperidine-3-carboxylic acid dihydrochloride] | 500 to 999 |
| C[C@H](N)C(=O)N1C[C@H](CCB(O)O)C[C@](N)(C(=O)O)C1 [Example 32, (3R,5R)-1-(L-Alanyl)-3-amino-5-(2-boronoethyl)piperidine-3-carboxylic acid dihydrochloride] | > 10000 |
| CC(C)C[C@H](N)C(=O)N1C[C@@H](CCB(O)O)C[C@](N)(C(=O)O)C1 [Example 8, (3R,5S)-1-(L-Leucyl)-3-amino-5-(2-boronoethyl)piperidine-3-carboxylic acid dihydrochloride] | 500 to 999 |

The remaining lines, values ahead:

| IC50 [nM] | Compound |
| --- | --- |
| 250 to 499 | NCCC[C@H](N)C(=O)N1C[C@@H](CCB(O)O)C[C@](N)(C(=O)O)C1 [Example 22, (3R,5S)-3-Amino-5-(2-boronoethyl)-1-((S)-2,5-diaminopentanoyl)piperidine-3-carboxylic acid trihydrochloride] |
| 250 to 499 | C[C@@H](O)[C@H](N)C(=O)N1C[C@@H](CCB(O)O)C[C@](N)(C(=O)O)C1 [Example 12, (3R,5S)-1-(L-Threonyl)-3-amino-5-(2-boronoethyl)piperidine-3-carboxylic acid dihydrochloride] |
| 250 to 499 | NC(=O)C[C@H](N)C(=O)N1C[C@@H](CCB(O)O)C[C@](N)(C(=O)O)C1 [Example 26, (3R,5S)-1-(L-Asparaginyl)-3-amino-5-(2-boronoethyl)piperidine-3-carboxylic acid dihydrochloride] |
| 1 to 249 | C[C@H](N)C(=O)N1C[C@@H](CCB(O)O)C[C@](N)(C(=O)O)[C@@H]1C [Example 30, (2S,3R,5S)-1-(L-alanyl)-3-amino-5-(2-boronoethyl)-2-methylpiperidine-3-carboxylic acid dihydrochloride] |
| 250 to 499 | NC(=O)NCCC[C@H](N)C(=O)N1C[C@@H](CCB(O)O)C[C@](N)(C(=O)O)C1 [Example 21, (3R,5S)-3-Amino-1-((S)-2-amino-5-ureidopentanoyl)-5-(2-boronoethyl) piperidine-3-carboxylic acid dihydrochloride] |
| 1 to 249 | NCCCC[C@H](N)C(=O)N1C[C@@H](CCB(O)O)C[C@](N)(C(=O)O)C1 [Example 7, (3R,5S)-1-(L-Lysyl)-3-amino-5-(2-boronoethyl)piperidine-3-carboxylic acid trihydrochloride] |
| 250 to 499 | CSCC[C@H](N)C(=O)N1C[C@@H](CCB(O)O)C[C@](N)(C(=O)O)C1 [Example 17, (3R,5S)-1-(L-Methionyl)-3-amino-5-(2-boronoethyl)piperidine-3-carboxylic acid dihydrochloride] |
| 250 to 499 | N[C@@H](Cc1c[nH]c2ccccc12)C(=O)N1C[C@@H](CCB(O)O)C[C@](N)(C(=O)O)C1 [Example 18, (3R,5S)-1-(L-Tryptophyl)-3-amino-5-(2-boronoethyl)piperidine-3-carboxylic acid dihydrochloride] |
| 1 to 249 | N[C@@H](CO)C(=O)N1C[C@@H](CCB(O)O)C[C@](N)(C(=O)O)C1 [Example 6, (3R,5S)-1-(L-Seryl)-3-amino-5-(2-boronoethyl)piperidine-3-carboxylic acid dihydrochloride] |
| 1 to 249 | N=C(N)NCCC[C@H](N)C(=O)N1C[C@@H](CCB2OC(=O)CC(CC(=O)O)(C(=O)O)O2)C[C@](N)(C(=O)O)C1 (stereo partly drawn) [Example 29, (3R,5S)-1-(L-Arginyl)-3-amino-5-(2-(4-carboxy-4-(carboxymethyl)-6-oxo-1,3,2-dioxaborinan-2-yl)ethyl)piperidine-3-carboxylic acid trihydrochloride] |
